Experiment [1] deals with T1, Icmt (Homo sapiens, UniProt O60725). The experiment in a line: Icmt scintillation proximity assay. Type of experiment: biochemical. The conditions noted are these: initial SPA screen, 50 μM. (In a scintillation proximity assay essentially only radioactivity close to the scintillant gives light.)
The target of experiment [2] is T1, Icmt. As to the kind of experiment: Vapor diffusion assay. The class given is biochemical. The conditions noted are these: for IC50: read-out: Human Icmt IC50, 25 μM AFC, 20 μM 14C-SAM, 30 min at 30°C.
Experiment [3] deals with T1, Icmt. The experiment in a line: Preliminary screen for Icmt substrate activity. Type of experiment: biochemical.
The subject of experiment [4] is cancer cells. The conditions noted are these: cited from earlier work.

T1 sequence (O60725 whole entry, the tested form may be a part): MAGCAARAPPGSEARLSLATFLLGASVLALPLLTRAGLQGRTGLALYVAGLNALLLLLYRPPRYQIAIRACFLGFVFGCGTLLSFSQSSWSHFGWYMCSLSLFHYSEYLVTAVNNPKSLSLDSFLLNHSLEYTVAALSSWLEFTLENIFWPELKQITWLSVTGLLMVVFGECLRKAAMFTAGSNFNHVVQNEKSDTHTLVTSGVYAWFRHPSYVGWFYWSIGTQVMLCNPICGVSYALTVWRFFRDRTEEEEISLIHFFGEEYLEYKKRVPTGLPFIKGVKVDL

For `CCCCCCCCC(=O)N[C@@H](CSC/C=C(\C)CC/C=C(\C)CCC=C(C)C)C(=O)O` [4i, N-octylcarbonyl-L-cysteine[S-(2E,6E)-3,7,11-trimethyldodeca-2,6,10-trienyl]-OH], in experiment [1], the “activity in the SPA” value was “inactive”.
With `CCCCCC12CCC(C(=O)N[C@@H](CSC/C=C(\C)CC/C=C(\C)CCC=C(C)C)C(=O)O)(CC1)CC2` [4d, N-4-pentylbicyclo[2.2.2]octane-1-carbonyl-L-cysteine[S-(2E,6E)-3,7,11-trimethyldodeca-2,6,10-trienyl]-OH], the IC50 in experiment [2] (VDA) turned out to be 16.7 µM.
Turning to “N-2-(aminophenyl)benzoyl-L-cysteine[S-(2E,6E)-3,7,11-trimethyldodeca-2,6,10-trienyl]-OH [5h]”, the “Icmt inhibitory potency (in words)” value in experiment [2] was “potent analog”.
`CC(C)=CCC/C(C)=C/CC/C(C)=C/CSC[C@H](NC(=O)C12CC3CC(CC1C3)C2)C(=O)O` [4b, N-3-noradamantanecarbonyl-L-cysteine[S-(2E,6E)-3,7,11-trimethyldodeca-2,6,10-trienyl]-OH]: in experiment [2] (VDA), the IC50 worked out at 16.7 µM.
For the molecule `CC(C)=CCC(=CCSC[C@H](NC(=O)c1ccccc1Oc1ccccc1)C(=O)O)CCc1ccc(-c2ccccc2)cc1` [compound 7, N-2-Phenoxybenzoyl-S-3-(3-methyl-but-2-enyl)-5-(4-biphenyl)pent-2-enyl-L-cysteine], in experiment [3], the Icmt substrate activity result is recorded as “no substrate activity”.
As to `CC(C)=CCC/C(C)=C/CC/C(C)=C/CSC[C@H](NC(=O)[C@]12CCC(CC1=O)C2(C)C)C(=O)O` [4e, N-(1S)-7,7-dimethyl-2-oxobicyclo[2.2.1]heptane-1-carbonyl-L-cysteine[S-(2E,6E)-3,7,11-trimethyldodeca-2,6,10-trienyl]-OH], the IC50 in experiment [2] (VDA) was 15.6 µM.
`CC(C)=CCC/C(C)=C/CC/C(C)=C/CSC[C@H](NC(=O)CC12CC3CC(CC(C3)C1)C2)C(=O)O` [4a, N-1-adamantylacetylcarbonyl-L-cysteine[S-(2E,6E)-3,7,11-trimethyldodeca-2,6,10-trienyl]-OH]: the IC50 in experiment [2] (VDA) was found to be 18.8 µM.
Still for that read-out and setting: under `CC(C)=CCC/C(C)=C/CC/C(C)=C/CSC[C@H](NC(=O)c1ccccc1-c1ccccc1)C(=O)O` [4f, N-2-phenylbenzoyl-L-cysteine[S-(2E,6E)-3,7,11-trimethyldodeca-2,6,10-trienyl]-OH] stands 12.1 µM.
For the molecule `CC(C)=CCC/C(C)=C/CC/C(C)=C/CSC[C@H](NC(=O)CN1C(=O)OC[C@@H]1c1ccccc1)C(=O)O` [5f, N-2-((S)-4-phenyl-2-oxo-oxazolidin-3-yl)acetyl-L-cysteine[S-(2E,6E)-3,7,11-trimethyldodeca-2,6,10-trienyl]-OH], the Icmt substrate activity result in experiment [3] was “more efficient Icmt substrates than the prototypical N-acetylfarnesylcysteine”.
Take `CC(C)=CCC/C(C)=C/CC/C(C)=C/CSC[C@H](NC(=O)Cc1cccc2ccccc12)C(=O)O` [4g, N-1-napthylacetylcarbonyl-L-cysteine[S-(2E,6E)-3,7,11-trimethyldodeca-2,6,10-trienyl]-OH]: the “activity in the SPA” value in experiment [1] was “inactive”.
In the case of `CC(C)=CCC/C(C)=C/CC/C(C)=C/CSC[C@H](NC(=O)CO[C@@H]1C[C@H](C)CC[C@H]1C(C)C)C(=O)O` [4h, N-2-((1R,2S,5R)-2-isopropyl-5-methylcyclohexyloxy)acetyl-L-cysteine[S-(2E,6E)-3,7,11-trimethyldodeca-2,6,10-trienyl]-OH], the IC50 in experiment [2] (VDA) is 22.9 µM.
Take `CC(C)=CCC/C(C)=C/CC/C(C)=C/CSC[C@H](NC(=O)C[C@H]1C[C@H]2CCC1C2)C(=O)O` [4c, N-2-((2R,4S)-bicyclo[2.2.1]heptan-2-yl)acetyl-L-cysteine[S-(2E,6E)-3,7,11-trimethyldodeca-2,6,10-trienyl]-OH]: in experiment [1], the “activity in the SPA” value is “inactive”.
In the case of `CC(C)=CCC/C(C)=C/CC/C(C)=C/CSC[C@H](NC(=O)CCS(=O)(=O)c1ccccc1)C(=O)O` [5l, N-3-(phenylsulfonyl)propanoyl-L-cysteine[S-(2E,6E)-3,7,11-trimethyldodeca-2,6,10-trienyl]-OH], the Icmt substrate activity result in experiment [3] is given as “more efficient Icmt substrates than the prototypical N-acetylfarnesylcysteine”.
Consider `CC(C)=CCC/C(C)=C/CC/C(C)=C/CSC[C@H](NC(=O)c1ccccc1Oc1ccccc1)C(=O)O` [5e, N-(2-oxyphenyl)benzoyl-L-cysteine[S-(2E,6E)-3,7,11-trimethyldodeca-2,6,10-trienyl]-OH], for which the “inhibition of Icmt (methylation of AFC)” value in experiment [2] (VDA, at a concentration of 10 μM) is given as approximately 80%. The IC50 in experiment [2] (VDA) turned out to be 4.3 µM.
Consider `CCCCCCCCn1cc(CC(N)=O)c2cc(-c3cccc(C)c3)ccc21` [cysmethynil], for which the “activity against cancer cells” value in experiment [4] was “exhibits activity against cancer cells”.

The term IC50 denotes the concentration that inhibits the measured activity by half.

Source of the values: PMC2702710 (The Journal of organic chemistry, 2009).
